Source: US6255517A, “Thymol derivatives having anti-tumor activity, and anti-cancer agent comprising the same” (Zee; Ok Pyo, priority 1998, dated 2001)

How the values were obtained:
Type in all cases: cell-based
[1] = system: XF498; assay: SRB cytotoxicity (anti-tumor activity) in vitro, XF498; settings: Homo sapiens, XF498 central nerve system tumor, 48 hours, read-out: ED50 (the source's name)
From the text: (§1) Anti-Tumor (Cyto-Toxicity) Effect in vitro of the Compound According to the Present Invention
(§2) The method for detecting cyto-toxicity employed in the present experiment is Sulforhodamin B Bioassay (SRB) method, which was developed by National Cancer Institute (NCI) in the United States in 1989, for the purpose of measuring anti-tumor activity in vitro.
(§3) The tumor cells used in the experiments via SRB method are listed below:
XF498: central nerve system tumor
(§4) The tumor cells listed above are all human tumor cell-lines, which were distributed from NCI in the United States and subcultured in Korea Chemical Institute. As a culture medium, RPMI 1640 culture medium supplemented with 5% FBS (fetal bovine serum) was used. Cultivation was performed in an 5% CO2 incubator with constant temperature (37° C.) and humidity. The subculture was carried out every three or four days, and a solution of 0.25% tyrosine and 3 mM trans-1,2-diaminocyclohexane-n,n,n,n-tetracetic acid (CDTA) dissolved in PBS (phosphate buffered saline) was used in order to release cells from the surface of the container.
(§5) The test compound synthesized according to the present invention was diluted to have a concentration of 30.0 μg/ml, 10.0 μg/ml, 3.0 μg/ml, 1.0 μg/ml, 0.3 μg/ml and 0.1 μg/ml, respectively, and the cyto-toxicity (anti-tumor activity) of the compound was measured. The maximum concentration of the sample was not more than 30.0 μg/ml. In order to prepare the samples for detection, DMSO (dimethylsulfoxide) was used, if necessary. The concentration of DMSO added was not more than 0.5%. Before added to the tumor cells, the sample solution, which was diluted via several steps, is filtered through a Millipore filter. In a sterile condition, the sample for detecting cyto-toxicity was prepared by means of SRB method using human tumor cell-lines such as A549, SK-OV-3, SK-MEL-2, XF498 and HCT15.
(§6) The subcultured tumor cells were released from the surface of instrument by using tyrosine-CDTA solution, and then charged on a 96-well flat bottom microplate to make the cell number 5×10^3 (A549, HCT15), 1×10^4 (SK-MEL-2, XF498) and 2×10^4 (SK-OV-3) for each cell. The tumor cells are attached on the bottom by cultivating in a CO2 incubator. After removing the culture medium by using an aspirator, the medium is eliminated by using log dose of six concentrations. To each well, 100 μl of 10% TCA (trichloroacetic acid) is added, and the plate was left for 1 hour at 4° C. to fix the cells on the bottom surface of the plate.
(§7) Then, the plate was washed with distilled water 5-6 times to completely remove the residual TCA solution, and dried up at room temperature. To each well of the completely dried plate, 100 μl of dye solution, in which 0.4% SRB solution was dissolved, was added to dye the cells for 30 minutes, and the cells were washed with 1% acetic acid to remove excess SRB which was not combined with the cells. The dyed cell plates were dried at room temperature, and 100 μl of 10 mM trisma base solution was added to each well. The solution was mixed by a titer plate shaker for 10 minutes to elute the dye solution. Then, the absorbance at 520 nm was measured by using a microplate reader.
(§8) In order to calculate the cyto-toxicity (anti-tumor activity) of the samples on tumor cells, the number of tumor cells at the point of adding the sample (Tz, zero time), the number of cells when only an excess amount of culture medium was added instead of the sample and cultured for 48 hours (C, control), and the number of cells when each concentration of the sample was added and cultured for 48 hours (T, test) were measured respectively. The cyto-toxicity was determined according to the following formulas:
(§9) When Tz>T: [(T-Tz)/(C-Tz)]×100
(§10) When Tz<T: [(T-Tz)/Tz]×100
(§11) From the calculated values thus obtained, ED50 (50% effective dose) [the concentration when the sample inhibits 50% of the growth of the tumor cells] was determined by the use of data regression tool of LOTUS program. […]

[2] = system: SK-MEL-2; assay: SRB cytotoxicity (anti-tumor activity) in vitro, SK-MEL-2; settings: Homo sapiens, SK-MEL-2 malignant melanoma, 48 hours, read-out: ED50 (the source's name)
From the text: as §1, §2, §3
SK-MEL-2: malignant melanoma, metastasis to skin of thigh
as §4, §5, §6, §7, §8, §9, §10, §11

[3] = system: HCT15; assay: SRB cytotoxicity (anti-tumor activity) in vitro, HCT15; settings: Homo sapiens, HCT-15, HCT15 colon adenocarcinoma, 48 hours, read-out: ED50 (the source's name)
From the text: as §1, §2, §3
HCT15: colon adenocarcinoma
as §4, §5, §6, §7, §8, §9, §10, §11

[4] = system: SK-OV-3; assay: SRB cytotoxicity (anti-tumor activity) in vitro, SK-OV-3; settings: Homo sapiens, SK-OV-3 ovary adenocarcinoma, 48 hours, read-out: ED50 (the source's name)
From the text: as §1, §2, §3
SK-OV-3: adenocarcinoma, ovary malignant ascites
as §4, §5, §6, §7, §8, §9, §10, §11

[5] = system: A549; assay: SRB cytotoxicity (anti-tumor activity) in vitro, A549; settings: Homo sapiens; A549 non small cell lung carcinoma; SRB, 48 hours; read-out: ED50 (the source's name)
From the text: as §1, §2, §3
A549: non small cell lungcarcinoma
as §4, §5, §6, §7, §8, §9, §10, §11

## C=C(CO)c1ccc(C)cc1OS(=O)(=O)c1ccc(C)cc1 [Compound 35-3, 2-(2-(4'-Toluenesulfoxy)-4-methylphenyl)-prop-2-ene-1-ol]
[1]
  IC50: 14 µM
[2]
  IC50: 17.9 µM
[3]
  IC50: 13.9 µM
[4]
  IC50: 14.6 µM
[5]
  IC50: 13.1 µM
